Test results from PubChem BioAssay (NCI).
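Test compounds were applied to cells in 96-well plates for 48 hours at 5 doses. Abbreviation: GI50, concentration required for 50% inhibition of growth. TGI denotes the concentration required for complete inhibition of growth.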

Columns and labels:
Test in all cases: NCI tumour cell line growth inhibition, 48 h
SNB-75 CNS = test system: SNB-75 CNS
MOLT-4 leukemia = test system: MOLT-4 leukemia
OVCAR-3 ovarian = test system: OVCAR-3 ovarian
HCT-15 colon = test system: HCT-15 colon
OVCAR-8 ovarian = test system: OVCAR-8 ovarian
SW-620 colon = test system: SW-620 colon
PC-3 prostate = test system: PC-3 prostate
OVCAR-4 ovarian = test system: OVCAR-4 ovarian
CAKI-1 renal = test system: CAKI-1 renal
NCI-H23 lung = test system: NCI-H23 lung
HT29 colon = test system: HT29 colon
NCI-H226 lung = test system: NCI-H226 lung
HL-60(TB) leukemia = test system: HL-60(TB) leukemia
LOX IMVI melanoma = test system: LOX IMVI melanoma
SR leukemia = test system: SR leukemia
RPMI-8226 leukemia = test system: RPMI-8226 leukemia
786-0 renal = test system: 786-0 renal
DU-145 prostate = test system: DU-145 prostate
IGROV1 ovarian = test system: IGROV1 ovarian
ACHN renal = test system: ACHN renal
A498 renal = test system: A498 renal
A549 NSCLC = test system: A549 NSCLC
MCF7 breast = test system: MCF7 breast
BT-549 breast = test system: BT-549 breast
U251 CNS = test system: U251 CNS
SK-MEL-5 melanoma = test system: SK-MEL-5 melanoma
SNB-19 CNS = test system: SNB-19 CNS
M14 melanoma = test system: M14 melanoma
T-47D breast = test system: T-47D breast
KM12 colon = test system: KM12 colon
NCI/ADR-RES ovarian = test system: NCI/ADR-RES ovarian
SK-MEL-28 melanoma = test system: SK-MEL-28 melanoma
HOP-62 NSCLC = test system: HOP-62 NSCLC
UACC-257 melanoma = test system: UACC-257 melanoma
HS 578T breast = test system: HS 578T breast
SF-539 CNS = test system: SF-539 CNS
UACC-62 melanoma = test system: UACC-62 melanoma
RXF 393 renal = test system: RXF 393 renal
HCT-116 colon = test system: HCT-116 colon
OVCAR-5 ovarian = test system: OVCAR-5 ovarian
SF-295 CNS = test system: SF-295 CNS
SK-MEL-2 melanoma = test system: SK-MEL-2 melanoma
K-562 leukemia = test system: K-562 leukemia
MDA-MB-435 = test system: MDA-MB-435
TK-10 renal = test system: TK-10 renal
NCI-H460 lung = test system: NCI-H460 lung
SF-268 CNS = test system: SF-268 CNS
SK-OV-3 ovarian = test system: SK-OV-3 ovarian
MDA-MB-231 breast = test system: MDA-MB-231 breast
SN12C renal = test system: SN12C renal
UO-31 renal = test system: UO-31 renal
NCI-H522 lung = test system: NCI-H522 lung
CCRF-CEM leukemia = test system: CCRF-CEM leukemia
COLO 205 colon = test system: COLO 205 colon
MALME-3M melanoma = test system: MALME-3M melanoma
HCC-2998 colon = test system: HCC-2998 colon

## Cc1cc(N/N=C/c2ccccn2)nc2ccccc12
SNB-75 CNS
  GI50: 461 nM
  TGI: 15200 nM
MOLT-4 leukemia
  GI50: 352 nM
  TGI: 4980 nM
OVCAR-3 ovarian
  GI50: 382 nM
  TGI: 11000 nM
HCT-15 colon
  GI50: 336 nM
  TGI: 16300 nM
OVCAR-8 ovarian
  GI50: 381 nM
  TGI: 16600 nM
SW-620 colon
  GI50: 588 nM
  TGI: 19600 nM
PC-3 prostate
  GI50: 486 nM
  TGI: 19200 nM
OVCAR-4 ovarian
  GI50: 166 nM
  TGI: 7200 nM
CAKI-1 renal
  GI50: 313 nM
  TGI: 2590 nM
NCI-H23 lung
  GI50: 831 nM
  TGI: 22200 nM
HT29 colon
  GI50: 605 nM
  TGI: 13100 nM
NCI-H226 lung
  GI50: 286 nM
  TGI: 4930 nM
HL-60(TB) leukemia
  GI50: 295 nM
  TGI: 804 nM
LOX IMVI melanoma
  GI50: 413 nM
  TGI: 10900 nM
SR leukemia
  GI50: 308 nM
  TGI: 5000 nM
RPMI-8226 leukemia
  GI50: 410 nM
  TGI: 12500 nM
786-0 renal
  GI50: 384 nM
  TGI: 12400 nM
DU-145 prostate
  GI50: 460 nM
  TGI: 14300 nM
IGROV1 ovarian
  GI50: 356 nM
  TGI: 3950 nM
ACHN renal
  GI50: 347 nM
  TGI: 11100 nM
A498 renal
  GI50: 633 nM
  TGI: 7050 nM
A549 NSCLC
  GI50: 361 nM
  TGI: 12300 nM
MCF7 breast
  GI50: 316 nM
  TGI: 8940 nM
BT-549 breast
  GI50: 850 nM
  TGI: 20300 nM
U251 CNS
  GI50: 378 nM
  TGI: 10500 nM
SK-MEL-5 melanoma
  GI50: 302 nM
  TGI: 6240 nM
SNB-19 CNS
  GI50: 535 nM
  TGI: 26300 nM
M14 melanoma
  GI50: 413 nM
  TGI: 5620 nM
T-47D breast
  GI50: 376 nM
  TGI: 15900 nM
KM12 colon
  GI50: 508 nM
  TGI: 14900 nM
NCI/ADR-RES ovarian
  GI50: 393 nM
  TGI: 21700 nM
SK-MEL-28 melanoma
  GI50: 895 nM
  TGI: 16800 nM
HOP-62 NSCLC
  GI50: 331 nM
  TGI: 5060 nM
UACC-257 melanoma
  GI50: 395 nM
  TGI: 5020 nM
HS 578T breast
  GI50: 8200 nM
  TGI: 34500 nM
SF-539 CNS
  GI50: 289 nM
  TGI: 1040 nM
UACC-62 melanoma
  GI50: 406 nM
  TGI: 3360 nM
RXF 393 renal
  GI50: 321 nM
  TGI: 4870 nM
HCT-116 colon
  GI50: 393 nM
  TGI: 5810 nM
OVCAR-5 ovarian
  GI50: 542 nM
  TGI: 18500 nM
SF-295 CNS
  GI50: 307 nM
  TGI: 3200 nM
SK-MEL-2 melanoma
  GI50: 4890 nM
  TGI: 19600 nM
K-562 leukemia
  GI50: 422 nM
  TGI: 7550 nM
MDA-MB-435
  GI50: 679 nM
  TGI: 15900 nM
TK-10 renal
  GI50: 674 nM
  TGI: 20600 nM
NCI-H460 lung
  GI50: 349 nM
  TGI: 11600 nM
SF-268 CNS
  GI50: 440 nM
  TGI: 15300 nM
SK-OV-3 ovarian
  GI50: 668 nM
  TGI: 16000 nM
MDA-MB-231 breast
  GI50: 469 nM
  TGI: 14300 nM
SN12C renal
  GI50: 368 nM
  TGI: 17300 nM
UO-31 renal
  GI50: 286 nM
  TGI: 2290 nM
NCI-H522 lung
  GI50: 359 nM
  TGI: 4810 nM
CCRF-CEM leukemia
  GI50: 250 nM
  TGI: 1770 nM
COLO 205 colon
  GI50: 367 nM
  TGI: 12400 nM
MALME-3M melanoma
  GI50: 842 nM
  TGI: 10200 nM
HCC-2998 colon
  GI50: 462 nM
  TGI: 16100 nM
